Source: patent US7786107B2, “Modulators of muscarinic receptors” (Vertex Pharmaceuticals Incorporated, priority 2006, dated 2010)

Experiments:
M1 muscarinic receptor = target: T1, M1 muscarinic receptor (Homo sapiens, UniProt P11229); experiment: Functional mobilization of intracellular calcium (FLIPR) in CHO cells expressing M1; type: cell-based; details: for EC50: CHO cells expressing M1, calcium mobilization; for Emax: CHO, 100% efficacy is the maximum response obtained with the Carbachol control
T1 construct: expressed in transfected cells; host or cells: CHO
T1 sequence (P11229 1-460): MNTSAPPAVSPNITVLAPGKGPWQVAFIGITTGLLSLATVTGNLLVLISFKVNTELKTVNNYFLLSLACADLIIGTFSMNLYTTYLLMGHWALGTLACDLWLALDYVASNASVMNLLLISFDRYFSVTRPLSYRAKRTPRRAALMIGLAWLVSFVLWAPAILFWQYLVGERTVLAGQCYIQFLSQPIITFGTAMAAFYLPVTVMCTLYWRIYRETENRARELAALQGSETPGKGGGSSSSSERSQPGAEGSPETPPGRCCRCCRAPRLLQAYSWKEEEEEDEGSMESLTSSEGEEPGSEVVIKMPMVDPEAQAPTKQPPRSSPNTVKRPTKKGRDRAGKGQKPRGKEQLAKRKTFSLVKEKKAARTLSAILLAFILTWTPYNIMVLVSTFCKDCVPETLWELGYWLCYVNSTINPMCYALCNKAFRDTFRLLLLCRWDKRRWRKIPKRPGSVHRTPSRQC
Experimental: (§1) Functional Mobilization of Intracellular Calcium to Determine Muscarinic Receptor Activity:
(§2) CHO cells expressing muscarinic receptors (M1 to M5) are grown as monolayers in tissue culture flasks at 37° C. in a humidified atmosphere containing 5% CO2 and passaged every 3-5 days. The growth media is Dulbecco's modified eagles medium (DMEM, Gibco Cat#12430-054), containing 25 mM Hepes and supplemented with Fetal Bovine Serum (Hyclone, Cat#SH30071.03), 0.1 mM of MEM non-essential amino acids (GIBCO, Cat#11140-050), 1 mM MEM Sodium Pyruvate (GIBCO Cat#11360-070) and 100 units/ml of Penicillin G and 100 μg/ml of Streptomycin (GIBCO Cat#15140-122). The recombinant muscarinic receptor cell lines are grown under antibiotic pressure with media containing 25 μg/ml zeocin and 500 μg/ml G418 (MI-CHO), 4 μg/ml puromycin, 50 μg/ml zeocin and 2.5 μg/ml blasticidin (M2 and M4-CHO) or 50 μg/ml zeocin and 4 μg/ml puromycin (M3 and M5-CHO).
(§3) Cells are harvested at 80-90% confluence using Versene (GIBCO Cat#15040-066), collected by centrifugation and seeded 18-24 hours prior to running the calcium assay at a density of 5,000-10,000 cells/well in […], clear-bottomed 384-well plates (BD Biocoat, poly-D-lysine, Cat#356663). The day of the experiment, the cells are washed with a plate washer (Bioteck Instruments, ELX 405) using bath 1 buffer (140-mM NaCl, 4.5-mM KCl, 2-mM CaCl2, 1-mM MgCl2, 10-mM Hepes-Na, 10-mM Glucose, pH 7.4, with NaOH) containing 1 mM Probenecid. Next, the calcium dye Fluo-3 (25 μl well of Fluo-3 AM at 4 μM, Molecular Probes F-1241, in Bath 1 buffer containing 1 mM Probenecid) is added to the 25 μl of Bath 1 remaining in each well after the plate wash and the dye is loaded at 37° C. in the tissue culture incubator for 60-90 min. The fluorescent dye is removed using the plate washer with Bath 1 containing 1 mM Probenecid, leaving 25 μl/well of this solution after the wash. Alternatively, cells can be loaded with the calcium indicator from Molecular Devices (Calcium 3 Assay Reagents, Cat #R7181) adding 5 μl of a 5× solution dye in Bath 1 containing 1 mM Probenecid (10 ml per dye flask cat#R7182 to generate a solution 20×) to 20 μl of the same buffer. After loading for 60 min, the experiment can be run without having to remove the dye.
(§4) Compounds are prepared at a 2× fold concentration in a 96-well plate (round bottom, Costar Corning cat#3656), by reconstituting the pre-spotted compounds in bath 1 containing 1 mM probenecid. The final concentration DMSO is 0.5%, and the amount of DMSO is normalized across the assay plate. To determine an agonist action of the compounds on muscarinic receptors, the reconstituted compounds are added (25 μl compound/well) to the cell assay plate (containing 25 μl/well) using the multi-channel robotic system of the FLIPR 3 Instrument (Molecular Devices, Sunnyvale, Calif.). To determine a functional inhibitory action of the compounds on muscarinic receptors, the reconstituted compounds are added (25 μl compound/well) to the assay plate and pre-incubated for 15 min prior to adding 25 μl of Carbachol at 3× the EC80 for each muscarinic subtype. Alternatively, the compounds can be co-applied simultaneously with the agonist. In both assay modes, the fluorescence is recorded for 60 sec (excitation wavelength is […] and emission wavelength 540 nm) using the FLIPR 3 instrument.
(§5) The potency, efficacy and selectivity of the muscarinic compounds were evaluated by screening the compound activity across the whole family (M1 to M5 cells). Compounds were also screened for activity on other proteins such as other GPCRs and ion channels to determine selectivity on M4 receptors.
(§6) Examples of activities and efficacies of the muscarinic compounds of formulae (I, I-A, and I-B) on modulating M1 and M4 receptors are shown below in Table 4. […]

M4 muscarinic receptor = target: T2, M4 muscarinic receptor (Homo sapiens, UniProt P08173); experiment: Functional mobilization of intracellular calcium (FLIPR) in CHO cells expressing M4; type: cell-based; details: for EC50: CHO cells expressing M4, calcium mobilization; for Emax: CHO, 100% efficacy is the maximum response obtained with the Carbachol control
T2 construct: expressed in transfected cells; host or cells: CHO
T2 sequence (P08173 1-479): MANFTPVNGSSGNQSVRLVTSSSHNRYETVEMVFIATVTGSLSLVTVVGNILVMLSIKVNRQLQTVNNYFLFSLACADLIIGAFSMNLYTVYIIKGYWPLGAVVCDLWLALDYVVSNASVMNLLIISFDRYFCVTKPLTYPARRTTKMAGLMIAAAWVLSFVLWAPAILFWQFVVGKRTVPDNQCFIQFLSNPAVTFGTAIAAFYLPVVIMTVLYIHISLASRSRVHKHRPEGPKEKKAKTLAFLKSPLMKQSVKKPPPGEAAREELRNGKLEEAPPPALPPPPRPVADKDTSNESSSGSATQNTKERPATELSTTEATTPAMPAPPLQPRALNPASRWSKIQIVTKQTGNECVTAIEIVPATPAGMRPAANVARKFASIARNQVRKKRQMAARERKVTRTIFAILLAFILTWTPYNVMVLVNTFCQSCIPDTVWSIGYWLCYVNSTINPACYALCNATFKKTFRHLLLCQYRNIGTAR
Experimental: as §1, §2, §3, §4, §5, §6

Row | SMILES | EC50 (M1 muscarinic receptor) | Emax (M1 muscarinic receptor) | EC50 (M4 muscarinic receptor) | Emax (M4 muscarinic receptor)
1 | CCOC(=O)N1C2CCC1CC(N1CCC3(CCC(=O)N(C)c4ccccc43)CC1)C2 (stereo not shown) [Compound 30] | < 2000 nM | 25 to 100% | < 2000 nM | 25 to 100%
2 | CN(C)C(=O)N1CCCC2(CCN(CCC(C)(C)C)CC2)c2ccccc21 [Compound 31] | > 10000 nM | < 25% | < 2000 nM | 25 to 100%
3 | CC(=O)N1CCCC2(CCN(CCC(C)(C)C)CC2)c2ccccc21 [Compound 32] | 2000 to 10000 nM | < 25% | < 2000 nM | 25 to 100%
4 | CN(C)C(=O)N1CCCC2(CCN(C3C[C@@H]4CC[C@@H]3C4)CC2)c2ccccc21 (stereo partly shown) [Compound 33] | > 10000 nM | < 25% | > 10000 nM | < 25%
5 | CC(=O)N1CCCC2(CCN(CCC(C)C)CC2)c2ccccc21 [Compound 34] | > 10000 nM | < 25% | > 10000 nM | < 25%
6 | CN1C(=O)CCC2(CCN(C3C[C@@H]4CC[C@@H]3C4)CC2)c2ccccc21 (stereo partly shown) [Compound 35] | > 10000 nM | < 25% | < 2000 nM | 25 to 100%
7 | CC(C)(C)CCN1CCC2(CCC(=O)Nc3ccccc32)CC1 [Compound 36, 1′-(3,3-dimethylbutyl)-3,4-dihydrospiro[benzo[b]azepine-5,4′-piperidin]-2(1H)-one] | < 2000 nM | 25 to 100% | < 2000 nM | 25 to 100%
